These results are taken from patent US20230052152A1, “COMPOUNDS FOR TREATMENT OF ALZHEIMER'S DISEASE” (SULFATEQ B.V., priority 2019, published 2023).

By pEC50 is commonly meant −log10 of the EC50, conventionally taken in molar units.

Structures are written as SMILES. pEC50: −log10 of the molar value. “Also recorded” adds a separate entry of the source.

The test system of data set [1] is SH-SY5Y cells. In words: Dopamine-induced excitotoxicity, differentiated SH-SY5Y neuronal-like cells, Neutral Red viability. It is filed as cell-based. The note with it: Homo sapiens, dopamine 24 h; for pEC50: 30 min pre-incubation, Neutral Red viability; for Emax: maximal restoration of viability. The procedure: (§1) Human SH-SY5Y neuroblastoma cells (ATCC #CRL-2266) were maintained in DMEM medium containing 10% fetal bovine serum and 1% Penicillin-Streptomycin solution (#P4333, Sigma-Aldrich, St. Louis, Mo.) and passaged when the cultures reach a confluency of 70%. Prior to experiments, SH-SY5Y cells were differentiated by serum reduction (to 1%) and stimulation with 10 μM retinoic acid (#R7882, Sigma-Aldrich, St. Louis, Mo.) for 72 hours. Differentiated SH-SY5Y cells were seeded at 0.6·10^5 cells/cm^2 for all experiments.
(§2) Differentiated SH-SY5Y cells were pre-incubated with SUL compounds (dose range 8·10^−4 to 1·10^−8 M) under standard culture conditions for 30 min and then stimulated with either 1-glutamate (60 mM; #12843-0, Sigma-Aldrich, St. Louis, Mo.) or dopamine (100 μM; #H8502, Sigma, St. Louis, Mo.) for an additional 24 h. Neutral Red Assay Solution (#N2889, Sigma-Aldrich, St. Louis, Mo.) was added to the cultures at a 10% (v/v) concentration during the final 4 hours of culture. Cells were washed with warm PBS and Neutral red solubilized in acid ethanol (1% acetic acid in 50% EtOH). Absorbances were recorded at 540 nm in a CLARIOStar Plus plate reader (BMG Labtech, Germany).
(§3) All experiments were performed in triplicate per condition and averaged. Data obtained from two individual experiments were used for evaluation in GraphPad Prism 8.0 (GraphPad Software Inc, Ca). 4 parameter non-linear regression was used to determine the efficacy and potency of SUL compounds to reduce the excitotoxicity induced by either 1-glutamate or dopamine.
Differentiated SH-SY5Y neuroblastoma cells were stimulated with 150 μM dopamine to induce excitotoxicity.

In data set [2] the test system is SH-SY5Y cells. In words: Glutamate-induced excitotoxicity, differentiated SH-SY5Y neuronal-like cells, Neutral Red viability. It is filed as cell-based, human. The note with it: 60 mM glutamate, 10^−3 to 10^−8 M.
The test system of data set [3] is SH-SY5Y cells. The description is as above. It is filed as cell-based. As to conditions: Homo sapiens, 60 mM glutamate 24 h; for pEC50: 30 min pre-incubation, Neutral Red viability; for Emax: maximal restoration of viability. The procedure:
as §1, §2, §3
SH-SY5Y neuroblastoma cells were differentiated into neuronal-like cells according to established protocols and stimulated with 60 mM glutamate to induce excitotoxicity.

The nature of data set [4]: Bioavailability in brain. The format is in vivo.
Data set [5] deals with WT and APP/PS1 mice. In words: Fear conditioning (hippocampal dependent context memory test), freezing. It is filed as in vivo, mouse. The note with it: chronic oral via food 2.5 to 6 moa, versus vehicle food. The text has this: (§4) The APP/PS1 mouse model is a widely used A-beta pathology model for Alzheimer's disease (AD) (1 of the 2 main neuropathological hallmarks of AD). These mice contain human transgenes for APP (Swedish mutation) and PSEN1 (L166P mutation), which will lead to pathological amyloid deposition in the brain and impairments in hippocampal dependent memory and Long Term Potentiation (LTP) starting at ˜3 months of age (3 moa).
(§5) The effectiveness of SUL-138 ((6-hydroxy-2,5,7,8-tetramethylchroman-2-yl)(4-(2-hydroxyethyl)piperazin-1-yl)methanone) in relieving/preventing common pathology in the APP/PS1 model was tested. The effect on memory was tested in a hippocampal dependent context test (Fear conditioning (FC)) and synaptic connectivity was tested via electrophysiological LTP (Long-term potentiation) measurements. Both are impaired in this mouse model under basal conditions. In addition, Phenotypers (Sylics) were used to exclude that SUL-138 induces atypical behavior after chronic oral treatment.
Wild type (WT) and APP/PS1 mice were each divided in 2 groups, either receiving vehicle or SUL-138 via their food. Group size amounted 12 animals. […]
FC: mice were exposed to a context for 2 min after which they received a 0.7 mA footshock. […] 24 h later mice were put in the same context and freezing levels were measured for 2 min.
Memory was assessed at 6 moa by measuring freezing following context acquisition.

The subject of data set [6] is APP/PS1 mice. In words: Plaque load (anti-Amyloid beta 6E10 staining of hippocampal slices). The note with it: three months oral, versus vehicle. It is filed as in vivo, mouse. The procedure: APP/PS1 (n=10) and wildtype mice (WT, n=10) mice were treated, either with vehicle or SUL-138. Mice were treated for 3 months starting at 3 months of age with either SUL-138 or vehicle treated food pellets. The mice were sacrificed at 6 months of age, the age at which (among others) hippocampal dependent memory impairment and apparent plaque load are expected.
4% PFA perfused brains, stored on sucrose, were sliced at […] using a cryostat (−20° C.; Leica). Hippocampal slices (n=2/animal; 5 animals/group) were washed 3×10 min with 1× PBS, and then blocked for 1 h in Blocking solution (10 mL 1× PBS+500 μL normal Goat Serum+0.250 g Bovine Serum Albumin+20 μL Triton-100). The slices were incubated overnight with anti-Amyloid beta (6E10) (ITK Diagnostics, 1:400), washed 3×10 min with 1× PBS and then incubated with secondary Goat anti-mouse Alexa fluorescent 488 antibody (Sigma-Aldrich, 1:250) for 2 h. Then slices were washed 3×10 min with 1× PBS and mounted on slides.
Slices were imaged using the Zeiss Cell Discover 7 high content microscope with LSM900 confocal head. Using Fiji, both hippocampi were selected separately for 5 animals per group (yellow line in FIG. 3A) and number and size of plaques were measured (FIG. 3B, C). The mean number of plaques and plaque size per animal were used for statistical analyses in GraphPad 8 using Student's t-test, one-sided.

Data set [7] has as its system WT and APP/PS1 mice. In words: Long-term potentiation (LTP) in acute hippocampal slices after chronic oral treatment. The format is in vivo, mouse. The note with it: 3×100 Hz stimulation, p<0.05.
Description: as §4
(§6) Wild type (WT) and APP/PS1 mice were each divided in 2 groups, either receiving vehicle or SUL-138 via their food. Group size amounted 12 animals. Based on mouse weight of ˜30 g, food intake of ˜5 g/day and desired oral intake of 30 mg/day/kg, food pellets were sprayed with SUL-138 in water with 0.0145% ethanol at 1 g SUL-138 in 5 kg food. Vehicle food was prepared by spraying with the same volume of 0.0145% ethanol containing water.
(§7) Mice were treated chronically between 2.5 moa (pre-pathology/memory deficit) and 6 moa (age at which clear neuropathology and memory deficits occur) prior to testing.
LTP: Acute coronal hippocampal slices were kept in artificial CSF and LTP was measured after 3×100 Hz stimulation.
Between 8-14 hippocampal slices per group (2A: WT ctrl, WT SUL-138, 2B: APP ctrl, APP SUL-138) received LTP evoked by 3×100 Hz stimulation (tetanus) of 1 sec separated by 20 sec. The slope was measured for 60 min. LTP was expressed as a percentage of baseline. […]

Data set [8] in a line: Overall welfare and body weight during chronic oral treatment. It is filed as in vivo, mouse. The note with it: vehicle versus SUL-138 treated animals. The procedure: as §6, §7
Data set [9] deals with prostaglandin synthases and the thromboxane synthase A. In words: Hippocampal protein expression of prostaglandin synthases and thromboxane synthase A. It is filed as in vivo, mouse. The note with it: hippocampal tissue, wildtype or APP/PS1 mice. The text has this: Hippocampal tissue from wildtype and APP/PS1 mice was examined for the protein expression of prostaglandin synthases and the thromboxane synthase A. Peptides resembling the prostaglandin synthase PTGS1, PTGES2, PTGES3, and PTGFS were found in the hippocampal tissue of both wildtype and APP/PS1 mice (Table 4). No protein fragments of PTGS2, PTGDS, PTGES1, PTGIS and TXA could be found.

For data set [10], the system named is WT and APP/PS1 mice. In words: Phenotypers spontaneous behavior after chronic oral treatment. It is filed as in vivo, mouse. The note with it: 3 days in phenotypers. The procedure: as §5, §6
Phenotypers (provided by Sylics, Amsterdam, Netherlands): Mice were housed in the phenotypers for 3 days during which spontaneous behavior: activity, dark/light, habituation, kinematics, light dark phase transition pattern and sheltering were measured.

Consider `Cc1c(C)c2c(c(C)c1O)CCC(C)(C(=O)O)O2` (centres unmarked) [SUL-11, 6-hydroxy-2,5,7,8-tetramethylchroman-2-carboxylic acid, reference compound], for which, in data set [1], the pEC50 is 5.08 and the Emax stood at 79.5%. Further, the “Effectiveness in increasing viability of glutamate-challenged cells versus the other SUL-compounds” value in [2] is “clearly less effective”. Besides, in data set [3], the pEC50 is 5.34 and the Emax was determined as 76.7%.

For the compound `Cc1c(C)c2c(c(C)c1O)CC[C@@](C)(C(=O)N[C@@H]1CCCNC1)O2` [SUL-13, (S)-6-hydroxy-2,5,7,8-tetramethyl-N-((R)-piperidin-3-yl)chromane-2-carboxamide], the pEC50 in [1] is 6.49; in data set [3] it was 5.42. The figures for the Emax in data set [1] and in data set [3] were 91.9% and 100%, respectively.

With `Cc1c(C)c2c(c(C)c1O)CC[C@@](C)(C(=O)N1CCN(CCO)CC1)O2` [SUL-138, (S)-(6-hydroxy-2,5,7,8-tetramethylchroman-2-yl)(4-(2-hydroxyethyl)piperazin-1-yl)methanone], the values for the pEC50 in [1] and in [3] were 6.18 and 5.85, respectively. In addition, the Emax in [1] and in [3] was 100% in each case. In data set [4], the Bioavailability in brain entry was “appears to be high”. Further, the “Freezing levels (memory)” value is “increased; also recorded: restored to WT levels” in data set [5] (APP/PS1 mice) and “increased” in data set [5] (WT mice). In addition, the Plaque size result in [6] (p=0.0021) is “reduced”. Besides, the Number of plaques result in data set [6] (p=0.0138) is recorded as “reduced”. The “LTP maintenance (min 30-60)” value in data set [7] (APP mice) was “significantly (p<0.05) higher; also recorded: restore in APP/PS1 mice memory and LTP to control levels”; in data set [7] (WT mice), “significantly (p<0.05) higher”. In addition, the Overall welfare entry in data set [8] is recorded as “did not show differences”. In addition, in data set [9], the “Protein expression of prostaglandin synthesizing enzymes” value is reported as “did not alter”. Moreover, the “Spontaneous behavior (activity, dark/light, habituation, kinematics, light dark phase transition pattern, sheltering)” value in [10] is “did not induce differences”.

As for `Cc1c(C)c(O)c(CC[C@@](C)(O)C(=O)N2CCN(CCO)CC2)c(C)c1O` [SUL-138M2, 4-(2,5-dihydroxy-3,4,6-trimethylphenyl)-2-hydroxy-1-(4-(2-hydroxyethyl)piperazin-1-yl)-2-methylbutan-1-one], the pEC50 is 5.77 in data set [1] and 5.35 in data set [3]. For the same compound, the Emax was 94.7% in data set [1] and 100% in data set [3].

In [1], `Cc1c(C)c2c(c(C)c1O)CC[C@](C)(C(=O)N1CCNCC1)O2` [SUL-150, (R)-(6-hydroxy-2,5,7,8-tetramethylchroman-2-yl)(piperazin-1-yl)methanone] gave a negative-log EC50 (pEC50) of 7.26 and an Emax of 100%. Also, in data set [3], the negative-log EC50 (pEC50) is 6.91 and the Emax amounted to 100%.

For the compound `Cc1c(C)c2c(c(C)c1O)CC[C@@](C)(C(=O)N1CCNCC1)O2` [SUL-151, (S)-(6-hydroxy-2,5,7,8-tetramethylchroman-2-yl)(piperazin-1-yl)methanone], the pEC50 is 7.16 in data set [1] and 7.02 in data set [3]. For the same compound, the Emax in data set [1] and in data set [3] was 100% each time.
